Data as given in patent publication US5089623A, “Certain imidate insecticides” (Imperial Chemical Industries Plc, priority 1990, dated 1992).

Experiments:
Type in all cases: in vivo
[1] = system: Rice water weevil [Lissorhoptrus oryzophilus (Kuschel)]; assay: Rice water weevil test (RWW); settings: per weevil, topical, female adults, 48 hours
Method: The compounds in Tables 1 and 2 above were tested for insecticidal activity using the following testing procedures. LC50 values, based on the results of these tests and calculated according to dosage-mortality curves, are expressed in Table 3.
Rice water weevil [Lissorhoptrus oryzophilus (Kuschel)]
Test compounds were diluted in acetone. Droplets (1 ul) of test solutions were applied to the ventral abdomens of ten female adult weevils. The treated weevils were placed in containers with wet cotton balls and rice foliage. The containers were covered and kept at a temperature of about 25° C. Mortality was recorded after 48 hours. […] The LC50 values are expressed below in Table 3 under the heading "RWW" in terms of μg of test compound per weevil.

[2] = system: Housefly [Musca domestica]; assay: Housefly insecticidal test (HF); settings: per 25 female houseflies, 48 hours
[3] = system: Tobacco Budworm [Heliothis virescens (Fabricius)]; assay: Tobacco budworm contact test (TBW-C); settings: second-instar larvae, 5 days, percent in solution
Summary of the method: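 Cotton cotyledons dipped 2–3 s in compound in 50:50 acetone–water, dried, then infested with 5 second-instar larvae and held 5 days at high humidity before scoring mortality.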

[4] = system: Aster Leafhopper [Macrosteles fascifrens (Stal)]; assay: Aster leafhopper test (LH); settings: adults/nymphs, 48 hours, percent in solution
[5] = system: Maize weevil [Sitophilus Zeamais (Motschulsky)]; assay: Maize weevil test (MW); settings: adult weevils, treated corn seeds, 48 hours, percent in solution
Summary of the method: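 Adult weevils (10) were placed with four corn seeds that had been dipped 2-3 s in compound dissolved in 50:50 acetone:water, then dried, and held at about 25° C. Mortality was scored at 48 h. LC50 was taken from dosage-mortality curves and expressed as percent compound in solution, from a 0.01% top concentration.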

[6] = system: Tobacco Budworm [Heliothis virescens (Fabricius)] eggs; assay: Tobacco budworm egg test (TBW-E); settings: percent in solution
[7] = system: Cabbage Looper [Trichoplusia ni (Hubner)]; assay: Cabbage looper test (CL); settings: second-instar larvae, 3-5 days, percent in solution
[8] = system: Beet Armyworm (Spodoptera exigua); assay: Beet armyworm test (BAW); settings: second-instar larvae, five days, percent in solution
Summary of the method: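 Sugar beet leaves were dipped 2-3 s in compound diluted in 50-50 acetone-water, dried, then infested with five second-instar larvae in humid dishes. Mortality was scored after five days at concentrations from 0.1% downward. LC50 was taken from dosage-mortality curves as percent compound in solution.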

CC(C)C(=Nc1ccc(F)c(Cl)c1F)OCc1ccc(F)c(Oc2ccc(F)cc2)c1 [Compound 330]
LC50 RWW [1]: 0.06 µg
LC50 HF [2]: 5 µg
LC50 TBW C [3]: 0.00035%
LC50 LH [4]: < 0.05%
LC50 MW [5]: 0.001%
LC50 TBW E [6]: 0.037%
LC50 CL [7]: 0.00012%

CC(C)C(=Nc1ccc(OC(F)(F)F)cc1)OCc1ccc(F)c(Oc2ccc(Cl)cc2)c1 [Compound 323]
LC50 RWW [1]: 0.16 µg
LC50 HF [2]: > 100 µg
LC50 TBW C [3]: 0.00065%
LC50 LH [4]: 0.05%
LC50 MW [5]: 0.0075%
LC50 TBW E [6]: 0.045%
LC50 CL [7]: 0.0006%
LC50 BAW [8]: 0.0025%

CC(C)C(=Nc1ccc(OC(F)(F)F)cc1)OCc1ccc(F)c(Oc2ccccc2)c1 [Compound 338]
LC50 RWW [1]: 0.044 µg
LC50 HF [2]: 26 µg
LC50 TBW C [3]: 0.00037%
LC50 MW [5]: 0.0053%
LC50 TBW E [6]: 0.01%
LC50 CL [7]: 0.000065%

CC(C)C(=Nc1ccc(F)c(C(F)(F)F)c1)OCc1ccc(F)c(Oc2ccccc2)c1 [Compound 300]
LC50 RWW [1]: 0.075 µg
LC50 HF [2]: 14 µg
LC50 TBW C [3]: 0.001%
LC50 LH [4]: 0.00002%
LC50 MW [5]: 0.01%
LC50 TBW E [6]: 0.024%
LC50 CL [7]: 0.0003%

CC(C)C(=Nc1ccc(F)c(Cl)c1)OCc1cccc(Oc2ccc(Cl)cc2)c1 [Compound 239]
LC50 RWW [1]: > 2.5 µg
LC50 HF [2]: 14 µg
LC50 TBW C [3]: 0.0005%
LC50 LH [4]: 0.002%
LC50 MW [5]: 0.006%
LC50 TBW E [6]: 0.025%
LC50 CL [7]: 0.00015%
LC50 BAW [8]: 0.005%

CC(C)C(=Nc1ccc2c(c1)OCO2)OCc1ccc(F)c(Oc2ccccc2)c1 [Compound 181]
LC50 RWW [1]: > 2.5 µg
LC50 HF [2]: 25 µg
LC50 TBW C [3]: 0.001%
LC50 MW [5]: 0.005%
LC50 TBW E [6]: 0.01%
LC50 CL [7]: 0.0005%
LC50 BAW [8]: 0.001%

CC(C)C(=Nc1ccc2c(c1)OC(F)(F)O2)OCc1ccc(F)c(Oc2ccccc2)c1 [Compound 285]
LC50 RWW [1]: 0.13 µg
LC50 HF [2]: 36 µg
LC50 TBW C [3]: 0.00017%
LC50 MW [5]: 0.005%
LC50 TBW E [6]: 0.005%
LC50 CL [7]: 0.000075%
LC50 BAW [8]: 0.0006%

CC(C)C(=Nc1ccc(F)c(Br)c1)OCc1ccc(F)c(Oc2ccc(Cl)cc2)c1 [Compound 298]
LC50 RWW [1]: > 2.5 µg
LC50 HF [2]: 13 µg
LC50 TBW C [3]: 0.0008%
LC50 LH [4]: 0.0001%
LC50 MW [5]: 0.008%
LC50 TBW E [6]: 0.015%
LC50 CL [7]: 0.0001%

CC(C)C(=Nc1ccc(F)c(Cl)c1)OCc1cccc(Oc2ccc(F)cc2)n1 [Compound 461]
LC50 RWW [1]: > 2.5 µg
LC50 HF [2]: 6 µg
LC50 MW [5]: 0.0075%
LC50 TBW E [6]: 0.01%
LC50 CL [7]: 0.00008%
LC50 BAW [8]: 0.0035%

CC(C)C(=Nc1ccc(Cl)c(Cl)c1)OCc1ccc(F)c(Oc2ccc(F)cc2)c1 [Compound 289]
LC50 RWW [1]: 0.082 µg
LC50 HF [2]: 10 µg
LC50 LH [4]: 0.0003%
LC50 MW [5]: > 0.01%
LC50 TBW E [6]: 0.006%
LC50 CL [7]: 0.00007%

CC(C)C(=Nc1ccc(Cl)c(Cl)c1)OCc1ccc(F)c(Oc2ccc(Cl)cc2)c1 [Compound 296]
LC50 RWW [1]: 0.14 µg
LC50 HF [2]: 38 µg
LC50 TBW C [3]: 0.00045%
LC50 LH [4]: 0.0003%
LC50 TBW E [6]: 0.025%
LC50 CL [7]: 0.00025%

CC(C)C(=Nc1ccc(C(F)(F)F)cc1)OCc1cccc(Oc2ccccc2)c1 [Compound 68]
LC50 RWW [1]: 0.15 µg
LC50 HF [2]: 37 µg
LC50 LH [4]: 0.0001%
LC50 MW [5]: > 0.01%
LC50 TBW E [6]: 0.009%
LC50 CL [7]: 0.006%

CC(C)C(=Nc1ccc(F)c(Cl)c1F)OCc1ccc(F)c(Oc2ccccc2)c1 [Compound 451]
LC50 RWW [1]: 0.065 µg
LC50 HF [2]: 3.6 µg
LC50 TBW C [3]: 0.00025%
LC50 LH [4]: 0.0002%
LC50 MW [5]: 0.0051%
LC50 TBW E [6]: > 0.1%
LC50 CL [7]: 0.0001%

CC(C)C(=Nc1ccc(F)c(I)c1)OCc1ccc(F)c(Oc2ccc(F)cc2)c1 [Compound 281]
LC50 RWW [1]: > 2.5 µg
LC50 HF [2]: 5 µg
LC50 TBW C [3]: 0.00025%
LC50 MW [5]: 0.005%
LC50 TBW E [6]: 0.006%
LC50 CL [7]: 0.00002%
LC50 BAW [8]: 0.0027%

CC(C)C(=Nc1ccc(F)c(Cl)c1F)OCc1cccc(Oc2ccc(Cl)cc2)c1 [Compound 331]
LC50 RWW [1]: > 2.5 µg
LC50 HF [2]: 20 µg
LC50 TBW C [3]: 0.0004%
LC50 TBW E [6]: 0.04%
LC50 CL [7]: 0.0002%
LC50 BAW [8]: 0.002%

CC(C)C(=Nc1ccc(C(F)(F)F)cc1)OCc1ccc(F)c(Oc2ccccc2)c1 [Compound 337]
LC50 RWW [1]: 0.067 µg
LC50 HF [2]: 21 µg
LC50 TBW C [3]: 0.0005%
LC50 MW [5]: 0.0053%
LC50 TBW E [6]: 0.008%
LC50 CL [7]: 0.0007%
LC50 BAW [8]: 0.0005%

CC(C)C(=Nc1ccc2c(c1)OC(F)(F)O2)OCc1cccc(Oc2ccccc2)c1 [Compound 245]
LC50 RWW [1]: > 2.5 µg
LC50 HF [2]: 20 µg
LC50 TBW C [3]: 0.0015%
LC50 MW [5]: 0.006%
LC50 TBW E [6]: 0.016%
LC50 CL [7]: 0.0035%
LC50 BAW [8]: 0.001%

CC(C)C(=Nc1cc(F)cc(F)c1)OCc1cccc(Oc2ccccc2)c1 [Compound 55]
LC50 RWW [1]: > 2.5 µg
LC50 HF [2]: > 100 µg
LC50 TBW C [3]: 0.004%
LC50 LH [4]: 0.0005%
LC50 TBW E [6]: 0.06%
LC50 CL [7]: 0.0017%
LC50 BAW [8]: 0.006%

CC(C)C(=Nc1ccc(C(F)(F)F)cc1)OCc1ccc(F)c(Oc2ccc(Cl)cc2)c1 [Compound 324]
LC50 RWW [1]: 0.06 µg
LC50 HF [2]: > 100 µg
LC50 TBW C [3]: 0.0004%
LC50 TBW E [6]: 0.025%
LC50 CL [7]: 0.00014%
LC50 BAW [8]: 0.0024%

CC(C)C(=Nc1ccc(F)cc1)OCc1ccc(F)c(Oc2ccc(Cl)cc2)c1 [Compound 325]
LC50 RWW [1]: > 2.5 µg
LC50 HF [2]: 5 µg
LC50 TBW C [3]: 0.0006%
LC50 TBW E [6]: 0.037%
LC50 CL [7]: 0.00012%
LC50 BAW [8]: 0.0025%

CC(C)C(=Nc1ccc(F)c(F)c1)OCc1ccc(F)c(Oc2ccccc2)c1 [Compound 336]
LC50 RWW [1]: > 2.5 µg
LC50 HF [2]: 3.6 µg
LC50 TBW C [3]: 0.0005%
LC50 MW [5]: 0.0091%
LC50 TBW E [6]: 0.02%
LC50 CL [7]: 0.00017%
LC50 BAW [8]: 0.001%

CC(C)C(=Nc1c(F)c(F)c(F)c(F)c1F)OCc1cccc(Oc2ccc(F)cc2)c1 [Compound 198]
LC50 RWW [1]: > 2.5 µg
LC50 HF [2]: 52 µg
LC50 LH [4]: 0.05%
LC50 MW [5]: 0.003%
LC50 TBW E [6]: > 0.1%
LC50 CL [7]: 0.0005%

CC(C)C(=Nc1ccc(F)c(F)c1)OCc1ccc(F)c(Oc2ccc(Cl)cc2)c1 [Compound 295]
LC50 RWW [1]: > 2.5 µg
LC50 HF [2]: 7.8 µg
LC50 TBW C [3]: 0.0005%
LC50 LH [4]: 0.0001%
LC50 MW [5]: 0.0053%
LC50 TBW E [6]: 0.01%
LC50 CL [7]: 0.00004%

FC(F)(F)c1cccc(N=C(OCc2cccc(Oc3ccccc3)c2)C(Cl)Cl)c1 [Compound 66]
LC50 RWW [1]: > 2.5 µg
LC50 HF [2]: 9.7 µg
LC50 LH [4]: 0.001%
LC50 TBW E [6]: 0.06%
LC50 CL [7]: < 0.0025%
LC50 BAW [8]: 0.0065%

CC(C)C(=Nc1ccc2c(c1)OC(F)(F)O2)OCc1cccc(Oc2ccc(F)cc2)c1 [Compound 244]
LC50 RWW [1]: 0.09 µg
LC50 HF [2]: 14 µg
LC50 TBW C [3]: 0.00025%
LC50 MW [5]: 0.0025%
LC50 TBW E [6]: > 0.1%
LC50 CL [7]: 0.00004%
LC50 BAW [8]: 0.002%

CC(C)C(=Nc1ccc(F)c(Cl)c1)OCc1cccc(Oc2ccc(F)cc2F)c1 [Compound 191]
LC50 RWW [1]: > 2.5 µg
LC50 HF [2]: 29 µg
LC50 LH [4]: > 0.05%
LC50 MW [5]: 0.004%
LC50 TBW E [6]: 0.04%
LC50 CL [7]: 0.00023%

CC(C)C(=Nc1ccc(F)c(Cl)c1)OCc1cccc(Oc2cccc(F)c2)c1 [Compound 125]
LC50 RWW [1]: > 2.5 µg
LC50 HF [2]: 12 µg
LC50 LH [4]: > 0.05%
LC50 MW [5]: > 0.01%
LC50 TBW E [6]: 0.025%
LC50 CL [7]: 0.0007%
